Measurements published in patent US8952042B2, “FXR (NR1H4) binding and activity modulating compounds” (Phenex Pharmaceuticals AG, priority 2009, dated 2015).

Columns and labels:
[1] = Plasma levels in mice after single dose gavage 5 mg/kg; assay type: in vivo; conditions: C57/bl6 mice, FIG. 1c, 5 mg/kg gavage
Protocol: Data represent the mean of 3 individual mouse plasma measurements.
(§1) Compounds were applied perorally by gavage at 5 mg/kg each and by i.v. Injection at 1 mg/kg each to male 12 weeks old C57BI/6J or Sprague Dawley rats and plasma concentrations of the test items were determined by LC-MS/MS after time points as indicated. In the case of Cynomolgus monkeys ([…]), the dose was adjusted to 12 mg/kg p.o., no i.v. injection was given (FIG. 1a, 1b and Table 2).
A solution of 2.5 mg/mL of each test item was produced by diluting them in the vehicle, 0.5% Hydroxypropyl-Methylcellulose (w/v) in 20 mM phosphate buffered saline pH 7.4. The solutions were stirred overnight at room temperature and heated to 40° C. for 10 minutes, resulting in fully homogenous suspension. The application was performed by administrating the solution perorally to the mice, with an application volume of 5 mL/kg. For each time point three mice or rats were used. In case of the Cynomolgus monkeys blood samples were obtained by repeated vein puncture. Blood samples were treated with L1-heparin during collection procedure and stored on ice until centrifugation at 645 g (5 min, 4° C.). Plasma was harvested and kept at −20° C. until being assayed. […] An aliquot of the particle-free supernatant was transferred to 200 μL sampler vials and subsequently subjected to LC MS/MS for quantification.

[2] = Pharmacokinetics in rat after oral administration 5 mg/kg; assay type: in vivo, Male Sprague Dawley Rat; conditions: for AUC(0-inf) / Cmax / MRT last / Tmax / half-life / bioavailability / AUC(0-t): male, Sprague Dawley, plasma; for AUC(0-inf) / Cmax / MRT last / Tmax / half-life / AUC(0-t) / AUC Extrapolated / CI / Vd: oral 5 mg/kg; for bioavailability: oral 5 mg/kg vs i.v. 1 mg/kg, read-out: Absolute Bioavailability; for AUC(0-t): read-out: AUC(0-8)
Protocol: as §1
(§2) A solution of 2.5 mg/mL of each test item was produced by diluting them in the vehicle, 0.5% Hydroxypropyl-Methylcellulose (w/v) in 20 mM phosphate buffered saline pH 7.4. The solutions were stirred overnight at room temperature and heated to 40° C. for 10 minutes, resulting in fully homogenous suspension. The application was performed by administrating the solution perorally to the mice, with an application volume of 5 mL/kg. For each time point three mice or rats were used. In case of the Cynomolgus monkeys blood samples were obtained by repeated vein puncture. Blood samples were treated with L1-heparin during collection procedure and stored on ice until centrifugation at 645 g (5 min, 4° C.). Plasma was harvested and kept at −20° C. until being assayed. To 50 μL of plasma sample […] acetonitrile containing an internal standard was added. Samples were vigorously shaken and centrifuged for 10 minutes at 6000 g and 20° C. An aliquot of the particle-free supernatant was transferred to 200 μL sampler vials and subsequently subjected to LC MS/MS for quantification.

[3] = Pharmacokinetics in rat after intravenous administration 1 mg/kg; assay type: in vivo, Male Sprague Dawley Rat; conditions: for plasma levels as compared to GW4064: Male Sprague Dawley Rat, Table 3; for AUC(0-inf) / MRT last / Tmax / Vd / half-life / concentration at 0.083 hr / concentration at 0.25 hr / concentration at 0.5 hr / concentration at 1 hr / concentration at 2 hr / concentration at 4 hr / Cmax / AUC(0-t): male, Sprague Dawley, plasma; for AUC(0-inf) / MRT last / Tmax / Vd / half-life / concentration at 0.083 hr / concentration at 0.25 hr / concentration at 0.5 hr / concentration at 1 hr / concentration at 2 hr / concentration at 4 hr / AUC(0-t): iv; for AUC(0-inf) / MRT last / Tmax / Vd / half-life / concentration at 0.083 hr / concentration at 0.25 hr / concentration at 0.5 hr / concentration at 1 hr / concentration at 2 hr / concentration at 4 hr / Cmax / AUC(0-t) / AUC Extrapolated / CI: rat; for AUC(0-inf) / MRT last / Tmax / Vd / half-life / concentration at 0.083 hr / concentration at 0.25 hr / concentration at 0.5 hr / concentration at 1 hr / concentration at 2 hr / concentration at 4 hr / Cmax / AUC Extrapolated / CI: 1 mg/kg i.v.; for concentration at 0.5 hr: 0.50 hr; for Cmax: footnote: Co for Intravenous; for AUC(0-t): 1 mg/kg, read-out: #AUC(0-8)
Protocol: as §1, §2

[4] = target: T1, FXR ligand binding domain (Homo sapiens, UniProt Q96RI1); test: Mammalian One Hybrid (M1H) Gal4 reporter assay in HEK293 cells; assay type: cell-based; conditions: potency range
T1 construct: expressed in transfected cells; host or cells: HEK293 cells (DSMZ), transient transfection of pCMV-BD-FXR-LBD
T1 sequence (Q96RI1 187-472 isoform Q96RI1-2): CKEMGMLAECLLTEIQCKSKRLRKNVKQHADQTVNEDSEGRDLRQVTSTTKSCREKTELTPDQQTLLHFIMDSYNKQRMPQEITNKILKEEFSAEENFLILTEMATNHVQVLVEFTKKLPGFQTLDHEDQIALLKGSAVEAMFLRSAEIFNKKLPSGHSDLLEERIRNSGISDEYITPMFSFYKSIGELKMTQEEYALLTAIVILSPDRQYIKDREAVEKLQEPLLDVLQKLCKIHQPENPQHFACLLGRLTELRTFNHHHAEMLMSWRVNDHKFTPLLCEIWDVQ
Protocol: Determination of a ligand mediated Gal4 promoter driven transactivation to quantify ligand binding mediated activation of FXR was performed as follows: The cDNA part encoding the FXR ligand binding domain was cloned into vector pCMV-BD (Stratagene) as a fusion to the yeast GAL4 DNA binding domain under the control of the CMV promoter. The amino acid boundaries of the ligand binding domain were amino acids 187-472 of Database entry NM_005123 (RefSeq). The plasmid pFR-Luc (Stratagene) was used as the reporter plasmid, containing a synthetic promoter with five tandem repeats of the yeast GAL4 binding sites, driving the expression of the Photinus pyralis (American firefly) luciferase gene as the reporter gene. In order to improve experimental accuracy the plasmid pRL-CMV (Promega) was cotransfected. pRL-CMV contains the constitutive CMV promoter, controlling the expression of the Renilla reniformis luciferase. All Gal4 reporter gene assays were done in HEK293 cells (obtained from DSMZ, Braunschweig, Germany) grown in MEM with L-Glutamine and Earle's BSS supplemented with 10% fetal bovine serum, 0.1 mM nonessential amino acids, 1 mM sodium pyruvate, and 100 units Penicillin/[…] per mL at 37° C. in 5% CO2. Medium and supplements were obtained from Invitrogen. For the assay, […] were plated per well in 96 well plates in 100 μL per well MEM without Phenol Red and L-Glutamine and with Earle's BSS supplemented with 10% charcoal/dextran treated FBS (HyClone, South Logan, Utah), 0.1 mM nonessential amino acids, 2 mM glutamine, 1 mM sodium pyruvate, and 100 units Penicillin/[…] per mL, incubated at 37° C. in 5% CO2. The following day the cells were >90% confluence. Medium was removed and cells were transiently transfected using 20 μL per well of a OptiMEM—polyethylene-imine-based transfection-reagent (OptiMEM, Invitrogen; Polyethyleneimine, Aldrich Cat No. 40, 827-7) including the three plasmids described above. MEM with the same composition as used for plating cells was added 2-4 h after addition of transfection mixture. Then compound stocks, prediluted in MEM were added (final vehicle concentration not exceeding 0.1%). Cells were incubated for additional 16 h before firefly and renilla luciferase activities were measured sequentially in the same cell extract using a Dual-Light-Luciferase-Assay system (Dyer et al., Anal. Biochem. 2000, 282, 158-161). All experiments were done in triplicates.

[5] = Pharmacokinetics in monkeys after oral administration 12 mg/kg; assay type: in vivo, Cynomolgus monkeys (Macacca mulatta); conditions: oral 12 mg/kg, Avg; for AUC(0-inf) / AUC(0-t) / Cmax / Tmax / half-life / MRT last / Vd/F: Cynomolgus, cynomolgus monkey, plasma; for MRT last: read-out: MRT0-t (converted); for Vd/F: read-out: Vz/F
Protocol: as §1, §2

| plasma levels as compared to GW4064 [1] | AUC(0-inf) [2] [ng·h/mL] | Cmax [2] [ng/mL] | MRT last [2] [h] | Tmax [2] [h] | half-life [2] [h] | bioavailability [2] [%] | AUC(0-t) [2] [ng·h/mL] | AUC Extrapolated [2] [%] | CI [2] [mL/min/kg] | Vd [2] [L/kg] | plasma levels as compared to GW4064 [3] | AUC(0-inf) [3] [ng·h/mL] | MRT last [3] [h] | Tmax [3] [min] | Vd [3] [L/kg] | half-life [3] [h] | concentration at 0.083 hr [3] [ng/mL] | concentration at 0.25 hr [3] [ng/mL] | concentration at 0.5 hr [3] [ng/mL] | other results | Compound |
| --- | --- | --- | --- | --- | --- | --- | --- | --- | --- | --- | --- | --- | --- | --- | --- | --- | --- | --- | --- | --- | --- |
| substantially higher | 406 | 93.1 | 2.97 | 0.5 | 4.08 | 8.8 | 287 | 33.93 | 205.0343 | 72.49139 | substantially higher | 923 | 0.83 | 4.98 | 1.79 | 1.14 | 1190 | 749 | 451 | concentration at 1 hr [3]: 202 ng/mL; concentration at 2 hr [3]: 78.9 ng/mL; concentration at 4 hr [3]: 44.5 ng/mL; Cmax [3]: 1500 ng/mL; AUC(0-t) [3]: 850 ng·h/mL; AUC Extrapolated [3]: 7.94%; CI [3]: 18.0508 mL/min/kg; EC50 [4]: 10 to 100 nM; AUC(0-inf) [5]: 30700 ng·h/mL; AUC(0-t) [5]: 30500 ng·h/mL; Cmax [5]: 7340 ng/mL; Tmax [5]: 1.42 h; half-life [5]: 2.92 h; MRT last [5]: 4.31 h; Vd/F [5]: 1.93 L/kg; CLz/F [5]: 7 mL/min/kg | O=C(O)c1cccc(C2CC2c2ccc(OCc3c(-c4c(Cl)cccc4Cl)noc3C3CC3)cc2Cl)c1 (racemic) [Example 4, 3-(2-(2-chloro-4-((5-cyclopropyl-3-(2,6-dichlorophenyl)isoxazol-4-yl)methoxy)phenyl)-cyclopropyl)benzoic acid] |
| substantially higher | 681 | 210 | 2.42 | 0.5 | 2.78 | 30.9 | 570 | 16.32 | 122.39 | 29.44442 | substantially higher | 440 | 0.78 | 4.98 | 4.82 | 1.47 | 661 | 359 | 174 | concentration at 1 hr [3]: 84.6 ng/mL; concentration at 2 hr [3]: 37.7 ng/mL; concentration at 4 hr [3]: 19.2 ng/mL; Cmax [3]: 895 ng/mL; AUC(0-t) [3]: 399 ng·h/mL; AUC Extrapolated [3]: 9.28%; CI [3]: 37.8772 mL/min/kg; EC50 [4]: 10 to 100 nM; AUC(0-inf) [5]: 15100 ng·h/mL; AUC(0-t) [5]: 14500 ng·h/mL; Cmax [5]: 2220 ng/mL; Tmax [5]: 2.92 h; half-life [5]: 4.54 h; MRT last [5]: 6.11 h; Vd/F [5]: 5.19 L/kg; CLz/F [5]: 13 mL/min/kg | O=C(O)c1ccc(C2CC2c2ccc(OCc3c(-c4c(Cl)cccc4Cl)noc3C3CC3)cc2Cl)cc1 (racemic) [Example 12, 4-(2-(2-chloro-4-((5-cyclopropyl-3-(2,6-dichlorophenyl)isoxazol-4-yl)methoxy)phenyl)cyclopropyl)benzoic acid] |
